Test results taken from ChEMBL document CHEMBL1201862, “PubChem BioAssay data set” (2004).
Active and inactive are the calls of the source.

Assays:
SUMO-activating enzyme = SUMO-activating enzyme (Homo sapiens, UniProt Q9UBT2); experiment: blockers of UBC9-mediated SUMO conjugation – biochemical, AlphaScreen, SUMOylation inhibitor project, confirmation (AID 2018); assay type: functional
Caspase-3 = molecular target: T1, Caspase-3 (Homo sapiens, UniProt P42574); assay type: functional;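 also: Dose-response selectivity test against caspase-3 for candidate inhibitors of sentrin-specific proteases (SENPs)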
T1 sequence (P42574 whole entry): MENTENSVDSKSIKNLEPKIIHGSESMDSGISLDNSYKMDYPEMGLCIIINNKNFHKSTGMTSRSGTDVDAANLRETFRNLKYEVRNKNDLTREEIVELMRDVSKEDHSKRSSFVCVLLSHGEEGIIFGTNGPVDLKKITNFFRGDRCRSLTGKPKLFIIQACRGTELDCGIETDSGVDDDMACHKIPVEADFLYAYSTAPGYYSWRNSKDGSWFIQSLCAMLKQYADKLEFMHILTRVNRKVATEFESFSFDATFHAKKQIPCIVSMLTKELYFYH

[1] = molecular target: T2, Sentrin-specific protease 7 (Homo sapiens, UniProt Q9BQF6); assay type: functional;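 also: Luminescence-based dose-response confirmation of ultra-high-throughput screening hits, measuring inhibition of SENP7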
T2 sequence (Q9BQF6 whole entry): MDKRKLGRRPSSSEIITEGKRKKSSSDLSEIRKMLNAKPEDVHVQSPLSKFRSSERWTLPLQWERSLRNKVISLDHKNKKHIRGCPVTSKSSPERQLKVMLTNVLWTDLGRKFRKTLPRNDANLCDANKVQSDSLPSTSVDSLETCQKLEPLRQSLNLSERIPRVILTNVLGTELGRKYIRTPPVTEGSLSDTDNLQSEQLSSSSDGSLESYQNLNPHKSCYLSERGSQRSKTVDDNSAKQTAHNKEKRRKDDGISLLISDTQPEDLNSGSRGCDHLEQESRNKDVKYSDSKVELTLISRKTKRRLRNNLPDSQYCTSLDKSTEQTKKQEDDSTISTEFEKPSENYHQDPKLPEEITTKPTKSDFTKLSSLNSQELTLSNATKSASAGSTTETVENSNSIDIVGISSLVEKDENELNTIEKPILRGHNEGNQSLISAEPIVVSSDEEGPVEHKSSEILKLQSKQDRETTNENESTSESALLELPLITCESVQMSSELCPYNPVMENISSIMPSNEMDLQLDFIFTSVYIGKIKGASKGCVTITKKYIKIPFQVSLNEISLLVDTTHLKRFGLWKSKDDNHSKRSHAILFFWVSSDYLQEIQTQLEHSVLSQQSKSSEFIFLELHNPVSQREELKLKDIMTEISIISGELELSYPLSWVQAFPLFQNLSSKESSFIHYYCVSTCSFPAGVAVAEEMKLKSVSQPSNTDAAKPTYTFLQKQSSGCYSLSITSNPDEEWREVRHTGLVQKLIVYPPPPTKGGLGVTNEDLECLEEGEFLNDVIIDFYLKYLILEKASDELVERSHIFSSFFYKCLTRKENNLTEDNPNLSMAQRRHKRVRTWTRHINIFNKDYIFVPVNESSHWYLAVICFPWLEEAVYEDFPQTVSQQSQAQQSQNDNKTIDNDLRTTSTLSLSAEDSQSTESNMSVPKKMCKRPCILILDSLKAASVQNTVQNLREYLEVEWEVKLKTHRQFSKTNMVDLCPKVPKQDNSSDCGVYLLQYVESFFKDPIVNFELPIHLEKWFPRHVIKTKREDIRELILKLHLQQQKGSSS

[2] = luciferase reporter signal suppression in cells – H4 neuroglioma cells, luminescence, dose response (AID 1990); assay type: functional, cell-based
[3] = loss of viability in HepG2 cells – cell-based, CellTiter-Glo, cherry-picked, cytotoxicity control for Shn3 inhibitor project, dose response (AID 624134); assay type: functional
[4] = molecular target: Dual specificity protein kinase CLK2 (Homo sapiens, UniProt P49760); assay type: functional
[5] = molecular target: Tyrosine-protein kinase Lck (Homo sapiens, UniProt P06239); assay type: functional;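 also: lck was assayed as one member of a kinase panel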
Aurora kinase A = molecular target: T3, Aurora kinase A (Homo sapiens, UniProt O14965); assay type: functional;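 also: value from the Navigating the Kinome kinase panel profiling, panel entry STK6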
T3 sequence (O14965 whole entry): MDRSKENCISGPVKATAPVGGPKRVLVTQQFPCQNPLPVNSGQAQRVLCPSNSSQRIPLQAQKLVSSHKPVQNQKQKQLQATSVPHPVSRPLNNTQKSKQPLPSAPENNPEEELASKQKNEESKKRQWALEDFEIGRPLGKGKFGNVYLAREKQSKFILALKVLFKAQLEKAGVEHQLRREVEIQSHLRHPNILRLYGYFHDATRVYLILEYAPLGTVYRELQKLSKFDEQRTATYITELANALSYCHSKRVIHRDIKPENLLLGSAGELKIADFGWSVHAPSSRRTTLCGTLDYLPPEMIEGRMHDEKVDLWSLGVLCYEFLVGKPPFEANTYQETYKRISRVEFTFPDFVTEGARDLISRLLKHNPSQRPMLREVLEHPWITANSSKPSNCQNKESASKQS

[6] = molecular target: Tyrosine-protein kinase Lyn (Homo sapiens, UniProt P07948); assay type: functional;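 also: lyn as one member of a kinase panel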
[7] = molecular target: Tyrosine-protein kinase ITK/TSK (Homo sapiens, UniProt Q08881); assay type: functional;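 also: affinity for ITK measured as one member of a broad kinase panel profiling binding across the kinome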
[8] = molecular target: Tyrosine-protein kinase Blk (Homo sapiens, UniProt P51451); assay type: functional;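 also: obtained as one member of a kinome-wide kinase assay panel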
[9] = molecular target: Mitogen-activated protein kinase kinase kinase 20 (Homo sapiens, UniProt Q9NYL2); assay type: functional
[10] = molecular target: MAP kinase-activated protein kinase 3 (Homo sapiens, UniProt Q16644); assay type: functional;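 also: value comes from a kinome-wide profiling panel in which MAPKAPK3 is one of the panel members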
[11] = molecular target: cAMP-dependent protein kinase catalytic subunit PRKX (Homo sapiens, UniProt P51817); assay type: functional
[12] = molecular target: Fibroblast growth factor receptor 3 (Homo sapiens, UniProt P22607); assay type: functional
Sequence of Fibroblast growth factor receptor 3 (P22607 whole entry): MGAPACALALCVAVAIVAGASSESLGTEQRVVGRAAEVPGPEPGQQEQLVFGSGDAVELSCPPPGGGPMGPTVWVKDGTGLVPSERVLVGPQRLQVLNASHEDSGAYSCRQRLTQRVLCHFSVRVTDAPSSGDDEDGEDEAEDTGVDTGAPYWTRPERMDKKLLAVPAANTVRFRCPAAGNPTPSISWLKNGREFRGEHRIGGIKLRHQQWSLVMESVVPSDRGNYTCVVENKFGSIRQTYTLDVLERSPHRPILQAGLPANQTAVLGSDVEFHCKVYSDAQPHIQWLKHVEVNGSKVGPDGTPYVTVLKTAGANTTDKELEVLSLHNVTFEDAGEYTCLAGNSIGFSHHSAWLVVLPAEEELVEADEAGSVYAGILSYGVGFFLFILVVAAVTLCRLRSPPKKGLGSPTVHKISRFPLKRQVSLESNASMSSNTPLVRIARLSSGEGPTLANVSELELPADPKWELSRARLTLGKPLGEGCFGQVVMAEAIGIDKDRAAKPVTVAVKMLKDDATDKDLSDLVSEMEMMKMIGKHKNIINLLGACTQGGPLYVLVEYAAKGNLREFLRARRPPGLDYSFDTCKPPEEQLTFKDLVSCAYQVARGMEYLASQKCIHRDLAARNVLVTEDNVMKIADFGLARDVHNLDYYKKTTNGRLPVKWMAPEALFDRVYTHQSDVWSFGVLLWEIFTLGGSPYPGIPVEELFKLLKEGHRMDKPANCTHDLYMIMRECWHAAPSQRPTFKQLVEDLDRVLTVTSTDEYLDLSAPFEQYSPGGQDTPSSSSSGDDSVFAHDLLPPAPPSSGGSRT

Sequence of Tyrosine-protein kinase Blk (P51451 whole entry): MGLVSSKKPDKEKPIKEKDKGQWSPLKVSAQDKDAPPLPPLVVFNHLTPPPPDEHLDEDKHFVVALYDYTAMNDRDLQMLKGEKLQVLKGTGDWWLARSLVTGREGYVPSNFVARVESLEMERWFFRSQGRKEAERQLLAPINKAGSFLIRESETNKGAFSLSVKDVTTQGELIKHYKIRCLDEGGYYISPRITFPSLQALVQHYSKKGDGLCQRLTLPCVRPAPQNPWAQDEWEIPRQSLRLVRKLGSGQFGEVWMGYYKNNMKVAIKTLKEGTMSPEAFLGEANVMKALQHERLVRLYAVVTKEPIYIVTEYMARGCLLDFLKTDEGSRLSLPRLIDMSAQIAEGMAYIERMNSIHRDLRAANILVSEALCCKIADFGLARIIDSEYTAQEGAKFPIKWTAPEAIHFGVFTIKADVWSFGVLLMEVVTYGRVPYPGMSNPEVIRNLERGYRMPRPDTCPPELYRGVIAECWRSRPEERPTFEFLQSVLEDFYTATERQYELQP
Sequence of Tyrosine-protein kinase Lyn (P07948 whole entry): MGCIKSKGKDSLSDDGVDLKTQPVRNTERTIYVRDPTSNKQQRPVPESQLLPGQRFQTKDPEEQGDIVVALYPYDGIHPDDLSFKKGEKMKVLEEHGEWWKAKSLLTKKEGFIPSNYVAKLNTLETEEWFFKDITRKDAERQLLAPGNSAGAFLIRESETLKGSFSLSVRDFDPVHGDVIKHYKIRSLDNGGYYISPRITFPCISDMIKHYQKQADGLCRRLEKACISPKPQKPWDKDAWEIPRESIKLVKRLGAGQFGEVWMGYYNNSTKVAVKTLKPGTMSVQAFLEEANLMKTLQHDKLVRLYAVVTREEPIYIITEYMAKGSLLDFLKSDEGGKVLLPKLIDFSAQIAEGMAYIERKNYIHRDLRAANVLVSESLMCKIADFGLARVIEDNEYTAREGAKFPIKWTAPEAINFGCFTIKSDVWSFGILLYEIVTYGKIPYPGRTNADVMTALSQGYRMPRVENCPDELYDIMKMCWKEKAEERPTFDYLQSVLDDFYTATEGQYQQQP
Sequence of cAMP-dependent protein kinase catalytic subunit PRKX (P51817 whole entry): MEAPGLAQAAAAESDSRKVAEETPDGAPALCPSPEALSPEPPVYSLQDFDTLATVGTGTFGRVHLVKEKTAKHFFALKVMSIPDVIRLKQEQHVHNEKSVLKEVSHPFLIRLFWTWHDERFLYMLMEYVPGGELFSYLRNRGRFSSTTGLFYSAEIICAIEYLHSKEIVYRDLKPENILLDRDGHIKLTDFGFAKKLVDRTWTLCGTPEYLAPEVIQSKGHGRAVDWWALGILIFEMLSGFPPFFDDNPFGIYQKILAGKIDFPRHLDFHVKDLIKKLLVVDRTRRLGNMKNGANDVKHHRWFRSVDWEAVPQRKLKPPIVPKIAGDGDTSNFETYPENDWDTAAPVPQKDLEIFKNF
Sequence of SUMO-activating enzyme (Q9UBE0 whole entry): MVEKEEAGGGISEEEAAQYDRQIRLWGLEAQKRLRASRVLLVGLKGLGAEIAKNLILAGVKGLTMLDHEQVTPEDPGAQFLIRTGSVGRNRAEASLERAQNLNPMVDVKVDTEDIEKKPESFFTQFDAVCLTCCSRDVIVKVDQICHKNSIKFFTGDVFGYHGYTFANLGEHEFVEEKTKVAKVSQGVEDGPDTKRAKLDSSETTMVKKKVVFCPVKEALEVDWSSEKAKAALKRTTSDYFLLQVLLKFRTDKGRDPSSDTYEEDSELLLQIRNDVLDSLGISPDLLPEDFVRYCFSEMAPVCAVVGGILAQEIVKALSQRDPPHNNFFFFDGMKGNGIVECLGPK
Sequence of SUMO-activating enzyme (Q9UBT2 whole entry): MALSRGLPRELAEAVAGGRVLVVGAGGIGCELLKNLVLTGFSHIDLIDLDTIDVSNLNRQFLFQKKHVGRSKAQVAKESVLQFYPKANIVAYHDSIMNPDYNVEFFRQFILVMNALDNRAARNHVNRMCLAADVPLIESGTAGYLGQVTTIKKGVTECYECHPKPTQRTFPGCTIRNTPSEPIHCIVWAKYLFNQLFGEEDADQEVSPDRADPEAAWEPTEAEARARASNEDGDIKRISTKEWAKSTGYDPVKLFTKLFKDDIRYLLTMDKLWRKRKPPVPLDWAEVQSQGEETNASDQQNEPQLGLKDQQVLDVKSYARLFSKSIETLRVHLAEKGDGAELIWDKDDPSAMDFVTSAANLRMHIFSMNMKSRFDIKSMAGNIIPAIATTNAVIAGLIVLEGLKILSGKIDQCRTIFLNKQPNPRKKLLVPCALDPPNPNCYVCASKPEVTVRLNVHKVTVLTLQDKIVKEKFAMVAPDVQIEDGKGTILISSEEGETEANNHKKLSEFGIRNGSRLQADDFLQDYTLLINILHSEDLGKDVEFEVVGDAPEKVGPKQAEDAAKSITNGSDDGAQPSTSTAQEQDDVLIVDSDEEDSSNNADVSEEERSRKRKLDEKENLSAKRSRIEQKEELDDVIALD
Sequence of Tyrosine-protein kinase Lck (P06239 whole entry): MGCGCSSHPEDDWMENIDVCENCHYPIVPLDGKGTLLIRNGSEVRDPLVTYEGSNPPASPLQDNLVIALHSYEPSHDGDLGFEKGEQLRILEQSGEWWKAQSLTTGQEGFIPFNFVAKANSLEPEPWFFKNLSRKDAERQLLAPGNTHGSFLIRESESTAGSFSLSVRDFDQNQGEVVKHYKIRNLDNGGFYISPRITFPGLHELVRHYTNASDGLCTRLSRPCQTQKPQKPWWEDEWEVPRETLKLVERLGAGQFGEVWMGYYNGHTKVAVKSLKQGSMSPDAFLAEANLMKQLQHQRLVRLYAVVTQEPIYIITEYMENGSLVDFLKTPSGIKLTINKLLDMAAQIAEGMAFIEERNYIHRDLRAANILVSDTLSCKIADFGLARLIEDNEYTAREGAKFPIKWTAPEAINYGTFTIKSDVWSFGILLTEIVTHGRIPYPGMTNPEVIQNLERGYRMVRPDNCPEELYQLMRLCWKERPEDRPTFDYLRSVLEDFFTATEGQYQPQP
Sequence of MAP kinase-activated protein kinase 3 (Q16644 whole entry): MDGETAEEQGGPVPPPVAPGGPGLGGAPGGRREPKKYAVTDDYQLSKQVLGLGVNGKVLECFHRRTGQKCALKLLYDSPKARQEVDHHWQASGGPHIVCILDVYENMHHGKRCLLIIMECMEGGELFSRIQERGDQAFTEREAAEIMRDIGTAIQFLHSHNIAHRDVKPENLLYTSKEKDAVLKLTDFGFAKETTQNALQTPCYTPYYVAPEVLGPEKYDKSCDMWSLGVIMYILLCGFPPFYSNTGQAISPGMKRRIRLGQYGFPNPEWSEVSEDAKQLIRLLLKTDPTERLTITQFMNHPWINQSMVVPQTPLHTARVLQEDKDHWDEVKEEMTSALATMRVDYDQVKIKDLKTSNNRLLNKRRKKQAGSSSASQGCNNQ
Sequence of Dual specificity protein kinase CLK2 (P49760 whole entry): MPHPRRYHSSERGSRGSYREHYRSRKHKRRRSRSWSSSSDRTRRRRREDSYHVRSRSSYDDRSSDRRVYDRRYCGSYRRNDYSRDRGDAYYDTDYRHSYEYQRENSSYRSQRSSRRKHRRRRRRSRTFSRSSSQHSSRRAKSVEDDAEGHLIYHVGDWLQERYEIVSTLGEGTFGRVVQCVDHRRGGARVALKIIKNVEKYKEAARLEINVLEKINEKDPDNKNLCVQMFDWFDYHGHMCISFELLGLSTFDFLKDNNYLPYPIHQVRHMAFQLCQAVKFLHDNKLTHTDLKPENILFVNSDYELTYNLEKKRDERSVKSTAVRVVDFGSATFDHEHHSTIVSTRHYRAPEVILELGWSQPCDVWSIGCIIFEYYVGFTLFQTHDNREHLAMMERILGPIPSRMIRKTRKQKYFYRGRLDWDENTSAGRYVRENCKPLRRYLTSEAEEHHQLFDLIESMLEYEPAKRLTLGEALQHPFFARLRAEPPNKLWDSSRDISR

Cc1ccc(C(=O)NC2(O)C(=O)c3ccccc3C2=O)cc1C
active: IC50 (SUMO-activating enzyme) 0.87 µM | IC50 [1] 4.4 µM
inactive: IC50 (Caspase-3) > 100 µM

CC[C@@H](C)[C@H](CNC)NC[C@@H](Cc1cccc2ccccc12)NCCc1cccc(C(F)(F)F)c1
active: EC50 [2] 8.36 µM | AC50 [3] 9.13 µM

CC(C)(CO)CNc1nccc(-c2c(-c3ccc(F)cc3)nc3c(CC4CC4)nccn23)n1
inactive: Ki [4] > 7.94 µM | Ki [5] > 2.51 µM | Ki (Aurora kinase A) > 3.98 µM | Ki [6] > 1.58 µM | Ki [7] > 1.58 µM | Ki [8] > 1.58 µM | Ki [9] > 7.94 µM | Ki [10] > 10 µM | Ki [11] > 1.58 µM | Ki [12] > 2 µM
